Measured values published in patent US20260053171A1, “METHANOGEN INHIBITORS” (AGRIZERONZ LIMITED PARTNERSHIP, priority 2022, published 2026).

Test system: methane production in rumen fluid
Experiment: Rumen in vitro (RIV) assay, methane production from rumen fluid incubations
Assay type: cell-based, cattle
Settings: Bos taurus, read-out: RIV % methane reduction +/− SD
Procedure: The compounds of the present invention were initially screened for activity using an in vitro fully automated incubation system for the measurement of total gas production and gas composition (methane and hydrogen). The system used is described in detail in the paper by Muetzel et al. (2014; Animal Feed Science and Technology 196, 1-11). The system in this specification is referred to as the rumen in vitro system or RIV. The RIV system provides a relatively simple tool for determining the rate and production of methane and also whether the rate and production of methane is inhibited or reduced by a particular compound or feed. Rumen in vitro assays use rumen fluid from donor animals (typically either sheep or cattle) which is typically combined with a buffer and then incubated in sealed fermentation vessels at 39° C. for either 24 or 48 h. These assays systems have been well-characterised and used by the scientific community over the last two decades (Rymer et al. 2005). The system that has been used here to characterise the effects of inhibitors on methane production and gas production, and the formation of H2, was described by Muetzel et al. (2014). Rumen in vitro assay systems reflect what can occur in the rumen in vivo, but only short-term, due to their short incubation times (typically not exceeding 48 h) which is limited by its buffering capacity and the fact that it is a closed system. Stock solutions of inhibitors were re-suspended in dimethylformamide (DMF) at concentrations 1000-fold higher than the highest used for the assays. Any further dilutions were also prepared using DMF. The total amount of inhibitor solution added to the rumen fluid-buffer mixture (60 mL) was 60 μl. Incubations used 60 ml of medium containing 12 ml of filtered rumen fluid and 48 ml of buffer in serum bottles for 24-48 h, essentially as described by Muetzel et al. (2014). Two fistulated cattle were used as donor animals for rumen fluid and treatments were incubated in duplicate bottles. Sets of duplicate incubation vials that contained ryegrass (with rumen fluid-buffer mixture), and ryegrass with 30 μM bromoethanesulfonate (BES) were also incubated as negative and positive controls, respectively. One experiment consists of 2 replicates of an inhibitor at any one concentration run at the same time, and a run can contain up to 32 bottle, including positive (30 µM BES) and negative (no inhibitor added) controls. Compound 1, for example, was tested using the 60 mL rumen in vitro assay system at 50 μM, 10 μM, and 2 μM final concentrations and compared to a positive control with 30 µM BES.

| SMILES | inhibition at 10 µM [%] | inhibition at 50 µM [%] | inhibition at 2 µM [%] |
| --- | --- | --- | --- |
| CS(=O)(=O)NC(=O)CCC(=O)N1N=C(c2ccc(-c3ccccc3)cc2)CC1c1ccc2nccnc2c1 (centres unmarked) [Compound 57, 4-(3-([1,1′-Biphenyl]-4-yl)-5-(quinoxalin-6-yl)-4,5-dihydro-1H-pyrazol-1-yl)-N-(methylsulfonyl)-4-oxobutanamide] | 62.7 ± 4.4 | 89.7 ± 0.5 | – |
| O=C(O)CCC(=O)N1N=C(c2ccc(-c3ccc(Cl)c(Cl)c3)cc2)CC1c1ccc2nccnc2c1 (centres unmarked) [Compound 27, 4-(3-(3′,4′-Dichloro-[1,1′-biphenyl]-4-yl)-5-(quinoxalin-6-yl)-4,5-dihydro-1H-pyrazol-1-yl)-4-oxobutanoic acid] | 48.3 ± 7.5 | 92.1 ± 1.1 | – |
| O=C(O)CCC(=O)N1N=C(c2ccc(-c3ccc(OC(F)(F)F)c(Cl)c3)cc2)CC1c1ccc2nccnc2c1 (centres unmarked) [Compound 102, 4-(3-(3′-Chloro-4′-(trifluoromethoxy)-[1,1′-biphenyl]-4-yl)-5-(quinoxalin-6-yl)-4,5-dihydro-1H-pyrazol-1-yl)-4-oxobutanoic acid] | 52.8 ± 2.5 | – | – |
| O=C(O)CCC(=O)N1N=C(c2ccc(-c3ccc(OC4CCCC4)cc3)cc2)CC1c1ccc2nccnc2c1 (centres unmarked) [Compound 85, 4-(3-(4′-(Cyclopentyloxy)-[1,1′-biphenyl]-4-yl)-5-(quinoxalin-6-yl)-4,5-dihydro-1H-pyrazol-1-yl)-4-oxobutanoic acid] | 71.8 ± 4.5 | – | 17.9 ± 7.3 |
| COc1cccc(-c2cccc(C3=NN(C(=O)CCC(=O)O)C(c4ccc5nccnc5c4)C3)c2)c1 (centres unmarked) [Compound 97, 4-(3-(3′-Methoxy-[1,1′-biphenyl]-3-yl)-5-(quinoxalin-6-yl)-4,5-dihydro-1H-pyrazol-1-yl)-4-oxobutanoic acid] | 5.4 ± 0.2 | 76 ± 1.4 | – |
| O=C(O)CCC(=O)N1N=C(c2ccc(-c3ccccc3)cc2)CC1c1ccc2c(c1)OCCO2 (centres unmarked) [Compound 40, 4-(3-([1,1′-Biphenyl]-4-yl)-5-(2,3-dihydrobenzo[b][1,4]dioxin-6-yl)-4,5-dihydro-1H-pyrazol-1-yl)-4-oxobutanoic acid] | 39.8 ± 1.3 | 89.5 ± 1.4 | – |
| O=C(O)CCC(=O)N1N=C(c2ccccc2-c2ccccc2)CC1c1ccc2nccnc2c1 (centres unmarked) [Compound 12, 4-(3-([1,1′-Biphenyl]-2-yl)-5-(quinoxalin-6-yl)-4,5-dihydro-1H-pyrazol-1-yl)-4-oxobutanoic acid] | 51.6 ± 1.5 | 95.9 ± 0.9 | – |
| O=C(O)CCC(=O)N1N=C2c3ccc(Cl)cc3CCC2C1c1ccc2nccnc2c1 (centres unmarked) [Compound 73, 4-(7-Chloro-3-(quinoxalin-6-yl)-3,3a,4,5-tetrahydro-2H-benzo[g]indazol-2-yl)-4-oxobutanoic acid] | 18.8 ± 1.6 | 78 ± 1.9 | – |
| O=C(O)CCC(=O)N1N=C(c2cccc(-c3ccccc3)c2)CC1c1ccc2nccnc2c1 (centres unmarked) [Compound 13, 4-(3-([1,1′-Biphenyl]-3-yl)-5-(quinoxalin-6-yl)-4,5-dihydro-1H-pyrazol-1-yl)-4-oxobutanoic acid] | 74.4 ± 3.3 | 97.2 ± 0.1 | 5 ± 0.4 |
| O=C(O)CCC(=O)N1N=C(c2ccc3nccnc3c2)CC1c1ccc(Cl)cc1 (centres unmarked) [Compound 77, 4-(5-(4-Chlorophenyl)-3-(quinoxalin-6-yl)-4,5-dihydro-1H-pyrazol-1-yl)-4-oxobutanoic acid] | – | 77 ± 0.4 | – |
| O=C(O)CCC(=O)N1N=C(c2ccc(Oc3ccccc3)cc2)CC1c1ccc2nccnc2c1 (centres unmarked) [Compound 7, 4-Oxo-4-(3-(4-phenoxyphenyl)-5-(quinoxalin-6-yl)-4,5-dihydro-1H-pyrazol-1-yl)butanoic acid] | 30.7 ± 3.6 | 66.4 ± 14.7 | – |
| CC(C)S(=O)(=O)NC(=O)CCC(=O)N1N=C(c2ccc(OC(F)(F)F)cc2)CC1c1ccc2nccnc2c1 (centres unmarked) [Compound 118, N-(Isopropylsulfonyl)-4-oxo-4-(5-(quinoxalin-6-yl)-3-(4-(trifluoromethoxy)phenyl)-4,5-dihydro-1H-pyrazol-1-yl) butanamide] | 29.7 ± 6 | – | – |
| O=C(O)CCC(=O)N1N=C(c2ccc(-c3ccc(OC(F)(F)F)cc3F)cc2)CC1c1ccc2nccnc2c1 (centres unmarked) [Compound 101, 4-(3-(2′-Fluoro-4′-(trifluoromethoxy)-[1,1′-biphenyl]-4-yl)-5-(quinoxalin-6-yl)-4,5-dihydro-1H-pyrazol-1-yl)-4-oxobutanoic acid] | 65.7 ± 2.9 | – | – |
| O=C(O)CCC(=O)N1N=C(c2ccc(-c3ccccc3)cn2)CC1c1ccc2nccnc2c1 (centres unmarked) [Compound 29, 4-Oxo-4-(3-(5-phenylpyridin-2-yl)-5-(quinoxalin-6-yl)-4,5-dihydro-1H-pyrazol-1-yl)butanoic acid] | – | 33.3 ± 0.6 | – |
| CN(C)c1ccc(-c2ccc(C3=NN(C(=O)CCC(=O)O)C(c4ccc5nccnc5c4)C3)cc2)cc1 (centres unmarked) [Compound 95, 4-(3-(4′-(Dimethylamino)-[1,1′-biphenyl]-4-yl)-5-(quinoxalin-6-yl)-4,5-dihydro-1H-pyrazol-1-yl)-4-oxobutanoic acid] | 68.3 ± 2.1 | – | – |
| CCOc1cc(C2CC(c3ccc(Cl)cc3)=NN2C(=O)CCC(=O)O)ccc1O (centres unmarked) [Compound 47, 4-(3-(4-Chlorophenyl)-5-(3-ethoxy-4-hydroxyphenyl)-4,5-dihydro-1H-pyrazol-1-yl)-4-oxobutanoic acid] | – | 68.3 ± 3.9 | – |
| COc1ccc(C2=NN(C(=O)CCC(=O)O)C(c3ccc4nccnc4c3)C2)cc1 (centres unmarked) [Compound 6, 4-(3-(4-Methoxyphenyl)-5-(quinoxalin-6-yl)-4,5-dihydro-1H-pyrazol-1-yl)-4-oxobutanoic acid] | – | 5.6 ± 2 | – |
| COc1cccc(C2CC(c3ccc(Cl)cc3)=NN2C(=O)CCC(=O)O)c1 (centres unmarked) [Compound 41, 4-(3-(4-Chlorophenyl)-5-(3-methoxyphenyl)-4,5-dihydro-1H-pyrazol-1-yl)-4-oxobutanoic acid] | – | 13.4 ± 3.2 | – |
| CSc1ccc(C2=NN(C(=O)CCC(=O)O)C(c3ccc4nccnc4c3)C2)cc1 (centres unmarked) [Compound 62] | – | 31.8 | – |
| O=C(O)CCC(=O)N1N=C(c2ccc(-c3ccccc3)cc2F)CC1c1ccc2nccnc2c1 (centres unmarked) [Compound 109, 4-(3-(3-Fluoro-[1,1′-biphenyl]-4-yl)-5-(quinoxalin-6-yl)-4,5-dihydro-1H-pyrazol-1-yl)-4-oxobutanoic acid] | 40.4 ± 8.1 | – | – |
| O=C(O)CCC(=O)N1N=C2c3cccc(-c4ccccc4)c3CCC2C1c1ccc2nccnc2c1 (centres unmarked) [Compound 129, 4-Oxo-4-(6-phenyl-3-(quinoxalin-6-yl)-3,3a,4,5-tetrahydro-2H-benzo[g]indazol-2-yl)butanoic acid] | 42.5 ± 15.8 | – | – |
| CC(C)(C)c1ccc(-c2ccc(C3=NN(C(=O)CCC(=O)O)C(c4ccc5nccnc5c4)C3)cc2)cc1 (centres unmarked) [Compound 87, 4-(3-(4′-(tert-Butyl)-[1,1′-biphenyl]-4-yl)-5-(quinoxalin-6-yl)-4,5-dihydro-1H-pyrazol-1-yl)-4-oxobutanoic acid] | 6 ± 0.5 | – | – |
| O=C(O)/C=C\C(=O)N1N=C(c2ccc(Cl)cc2)CC1c1ccc2nccnc2c1 (centres unmarked) [Compound 52, (Z)-4-(3-(4-Chlorophenyl)-5-(quinoxalin-6-yl)-4,5-dihydro-1H-pyrazol-1-yl)-4-oxobut-2-enoic acid] | – | 34.1 ± 1.3 | – |
| O=C(O)CC(=O)N1N=C(c2ccc(Cl)cc2)CC1c1ccc2nccnc2c1 (centres unmarked) [Compound 49, 3-(3-(4-Chlorophenyl)-5-(quinoxalin-6-yl)-4,5-dihydro-1H-pyrazol-1-yl)-3-oxopropanoic acid] | – | 8.1 ± 7.7 | – |
| O=C(O)CCC(=O)N1N=C(c2ccc(Cl)cc2)CC1c1ccc2nonc2c1 (centres unmarked) [Compound 35, 4-(5-(Benzo[c][1,2,5]oxadiazol-5-yl)-3-(4-chlorophenyl)-4,5-dihydro-1H-pyrazol-1-yl)-4-oxobutanoic acid] | 43.6 ± 6.6 | 91.3 ± 2.1 | – |
| CS(=O)(=O)NC(=O)CCC(=O)N1N=C(c2cccc(-c3ccccc3)c2)CC1c1ccc2nccnc2c1 (centres unmarked) [Compound 68, 4-(3-([1,1′-Biphenyl]-3-yl)-5-(quinoxalin-6-yl)-4,5-dihydro-1H-pyrazol-1-yl)-N-(methylsulfonyl)-4-oxobutanamide] | 85.4 ± 0.5 | – | 20.5 ± 1.4 |
| Cc1ccc(-c2ccc(C3=NN(C(=O)CCC(=O)O)C(c4ccc5nccnc5c4)C3)cc2)cc1 (centres unmarked) [Compound 23, 4-(3-(4′-Methyl-[1,1′-biphenyl]-4-yl)-5-(quinoxalin-6-yl)-4,5-dihydro-1H-pyrazol-1-yl)-4-oxobutanoic acid] | 69 ± 3.7 | 94.8 ± 0.4 | – |
| CC(C)Oc1ccc(-c2ccc(C3=NN(C(=O)CCC(=O)O)C(c4ccc5nccnc5c4)C3)cc2)cn1 (centres unmarked) [Compound 107, 4-(3-(4-(6-Isopropoxypyridin-3-yl)phenyl)-5-(quinoxalin-6-yl)-4,5-dihydro-1H-pyrazol-1-yl)-4-oxobutanoic acid] | 33.4 ± 2.1 | – | – |
